EP0658547B1, “N-pyrazolyl carbamate derivative, agricultural/horticultural fungicide containing the same as active ingredient and production intermediate thereof” (MITSUBISHI CHEMICAL CORPORATION, priority 1993, dated 1995)

Tests used:
Puccinia recondita = assay: Preventive activity on wheat brown rust (foliar application, spray inoculation); assay type: in vivo; conditions: 200 ppm active ingredient, wettable powder, foliar application on wheat plants (var. Norin No. 61), moist chamber 22°C 15 hours, then 7 days
Procedure: Test Example 2 Preventive activity on wheat brown Wettable powders prepared according to the same manner as that described in Formulation Example 1 were diluted with water to the predetermined concentration and then applied by foliar application on wheat plants (var. Norin No. 61) at the 1 to 2 leaf stage grown in pots of 6 cm in diameter at a ratio of 10 ml per one pot. After the chemical solution was air-dried, a spore suspension obtained by pulverizing the leaf of wheat infected with Puccinia recondita was spray-inoculated. After inoculation, the wheat seedling was maintained in a moist chamber at 22°C for 15 hours and was allowed to stand on a water tank in a green house for 7 days. For evaluation, the diseased area ratio of each leaf was measured and the preventive value was calculated from the following equation: The preventive value (%) = (average diseased area ratio in untreated plot) (- (average diseased area ratio in treated plot))/((average diseased area ratio in untreated plot))x 100 [formula]

Erysiphe graminis = assay: Preventive activity on wheat powdery mildew (foliar application, spray inoculation); assay type: in vivo; conditions: 200 ppm active ingredient, wettable powder, foliar application on wheat plants (var. Norin No. 61), 7 to 10 days after inoculation
Procedure: Test Example 1 Preventive activity on wheat powdery mildow
Wettable powders prepared according to the same manner as that described in Formulation Example 1 were diluted with water to the predetermined concentration and then applied by foliar application on wheat plants (var. Norin No. 61) at the 1 to 2 leaf stage grown in pots of 6 cm in diameter at a ratio of 10 ml per one pot. After the chemical solution was air-dried, a spore suspension obtained from the leaf of wheat infected with Erysiphe graminis was spray-inoculated. After inoculation, the seedling of wheat was allowed to stand at room temperature for 7 to 10 days.
For evaluation, the diseased area ratio of each leaf was measured and the preventive value was calculated from the following equation: The preventive value (%) = (average diseased area ratio in untreated plot) (- (average diseased area ratio in treated plot))/((average diseased area ratio in untreated plot))x 100 [formula]
The test compound No. cited in the Table 2 corresponds to the compound No. of Table 1.

Row | Structure (SMILES) | Preventive value 2 (%) (Puccinia recondita) | Preventive value 1 (%) (Erysiphe graminis)
1 | C#CCN(C(=O)OC)c1c(OCc2cc(C)ccc2C)c(C)nn1C [compound No. 50, methyl N-{1,3-dimethyl-4-(2,5-dimethylbenzyloxy)pyrazole-5-yl}-N-propargyl-carbamate] | 100 | 100
2 | COC(=O)Nc1c(OCc2cc(C)ccc2C)c(C)nn1C [compound No. 48, methyl N-{1,3-dimethyl-4-(2,5-dimethylbenzyloxy)pyrazole-5-yl} carbamate] | 86 | 93
3 | C#CCN(C(=O)OC)c1c(CON=C(C)c2ccc(C(F)(F)F)cc2)c(C)nn1C [compound No. 169, methyl N-[1,3-dimethyl-4-{(α-methyl-4-trifluoromethyl-benzylidene)aminooxymethylpyrazole-5-yl}]-N-propargyl-carbamate] | 100 | 100
